Data reported in PMC7192455, “Exploring novel bacterial terpene synthases” (PLoS ONE, 2020).

Legend:
Experiment in all cases: product identification by GC-QToF
Assay type in all cases: biochemical
[1] = target: T1, MiGerS (ADU09376.1), germacatriene synthase (Micromonospora aurantiaca (nom. illeg.), UniProt A0ABQ6UH67); conditions: 75 uM FPP, 5 mM MgCl2, 25 mM Tris-HCl pH 7.8, 28 C overnight; products germacrene A (seen as beta-elemene) and 1(10),4,11-germacratriene
T1 construct: gene F6X54_13130; codon-optimised, pETM11, N-terminal His-tag (TEV cleavable), E. coli, Ni-NTA purified
T1 sequence (A0ABQ6UH67 entry or part of it): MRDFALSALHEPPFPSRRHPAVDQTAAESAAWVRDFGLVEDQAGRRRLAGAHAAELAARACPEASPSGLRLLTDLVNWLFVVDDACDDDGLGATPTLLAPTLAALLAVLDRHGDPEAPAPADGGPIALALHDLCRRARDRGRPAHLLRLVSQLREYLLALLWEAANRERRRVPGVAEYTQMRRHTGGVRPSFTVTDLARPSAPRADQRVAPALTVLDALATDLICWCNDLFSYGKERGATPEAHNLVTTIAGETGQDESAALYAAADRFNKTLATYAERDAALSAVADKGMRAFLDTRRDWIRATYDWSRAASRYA

[2] = target: T2, RrNerS (AHY47823.1), linalool/nerolidol synthase (Rubrobacter radiotolerans, UniProt A0A023X648); conditions: 5 mM MgCl2, 25 mM Tris-HCl pH 7.8, 28 C overnight
T2 construct: gene RradSPS_2540; codon-optimised, pETM11, N-terminal His-tag (TEV cleavable), E. coli, Ni-NTA purified
T2 sequence (A0A023X648 1-315): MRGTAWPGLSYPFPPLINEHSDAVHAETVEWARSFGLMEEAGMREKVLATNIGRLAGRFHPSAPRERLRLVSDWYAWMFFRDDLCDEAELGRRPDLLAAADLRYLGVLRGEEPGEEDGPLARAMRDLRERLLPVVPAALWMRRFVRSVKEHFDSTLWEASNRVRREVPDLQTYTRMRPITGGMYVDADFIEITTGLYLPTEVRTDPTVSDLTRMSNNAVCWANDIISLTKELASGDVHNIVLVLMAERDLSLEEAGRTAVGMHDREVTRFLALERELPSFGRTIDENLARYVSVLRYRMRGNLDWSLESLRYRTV

[3] = target: T3, ScAroS (KYF56472.1), aromandendrene synthase (Sorangium cellulosum, UniProt Z9C2K8JLD0); conditions: 75 uM FPP, 5 mM MgCl2, 25 mM Tris-HCl pH 7.8, 28 C overnight; product aromadendrene
T3 construct: codon-optimised, pETM11, N-terminal His-tag (TEV cleavable), E. coli, Ni-NTA purified
T3 sequence (Z9C2K8JLD0 1-329): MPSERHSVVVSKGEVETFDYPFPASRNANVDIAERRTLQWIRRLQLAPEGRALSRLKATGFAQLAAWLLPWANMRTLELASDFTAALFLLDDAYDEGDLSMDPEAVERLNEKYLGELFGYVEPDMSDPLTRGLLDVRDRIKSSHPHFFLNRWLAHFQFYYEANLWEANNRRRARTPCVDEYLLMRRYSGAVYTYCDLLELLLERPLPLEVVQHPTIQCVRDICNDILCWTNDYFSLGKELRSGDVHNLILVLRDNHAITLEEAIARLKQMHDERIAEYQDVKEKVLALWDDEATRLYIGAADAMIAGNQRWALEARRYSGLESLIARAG

[4] = target: T4, ScGeoS, geosmin synthase (CAB41566.1) (Streptomyces coelicolor, UniProt Q9X839); conditions: 75 uM FPP, 5 mM MgCl2, 25 mM Tris-HCl pH 7.8, 28 C overnight; products geosmin, germacradienol, germacrene D; positive control
T4 construct: gene cyc2; bi-domain enzyme, recombinant, purified; pETM11 N-terminal His-tag
T4 sequence (Q9X839 whole entry): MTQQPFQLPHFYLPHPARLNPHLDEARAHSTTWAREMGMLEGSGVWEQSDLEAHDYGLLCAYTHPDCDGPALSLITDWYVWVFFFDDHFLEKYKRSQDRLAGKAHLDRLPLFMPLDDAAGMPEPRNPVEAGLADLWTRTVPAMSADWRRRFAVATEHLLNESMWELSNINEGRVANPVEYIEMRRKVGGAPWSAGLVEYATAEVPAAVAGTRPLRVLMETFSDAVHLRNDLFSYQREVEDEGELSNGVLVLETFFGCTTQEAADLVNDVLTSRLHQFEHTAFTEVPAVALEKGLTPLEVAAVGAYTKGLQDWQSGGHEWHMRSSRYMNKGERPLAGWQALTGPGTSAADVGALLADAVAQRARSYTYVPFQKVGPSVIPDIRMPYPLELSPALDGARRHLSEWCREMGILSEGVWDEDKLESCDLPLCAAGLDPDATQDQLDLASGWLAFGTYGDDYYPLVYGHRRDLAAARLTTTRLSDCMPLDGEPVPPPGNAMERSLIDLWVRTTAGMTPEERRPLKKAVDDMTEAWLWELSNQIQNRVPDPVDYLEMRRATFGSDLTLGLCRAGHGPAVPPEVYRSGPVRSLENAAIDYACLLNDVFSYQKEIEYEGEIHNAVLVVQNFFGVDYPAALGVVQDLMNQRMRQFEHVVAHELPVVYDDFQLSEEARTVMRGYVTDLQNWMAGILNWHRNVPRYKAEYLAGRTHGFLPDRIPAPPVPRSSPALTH

KaGerS (AHH94051.1) = target: T5, KaGerS (AHH94051.1) (Kutzneria viridogrisea, UniProt W5W0G4); conditions: 75 uM FPP, 5 mM MgCl2, 25 mM Tris-HCl pH 7.8, 28 C overnight; products germacradienol and germacrene D
T5 construct: gene KALB_676; codon-optimised, pETM11, N-terminal His-tag (TEV cleavable), E. coli, Ni-NTA purified
T5 sequence (W5W0G4 1-363): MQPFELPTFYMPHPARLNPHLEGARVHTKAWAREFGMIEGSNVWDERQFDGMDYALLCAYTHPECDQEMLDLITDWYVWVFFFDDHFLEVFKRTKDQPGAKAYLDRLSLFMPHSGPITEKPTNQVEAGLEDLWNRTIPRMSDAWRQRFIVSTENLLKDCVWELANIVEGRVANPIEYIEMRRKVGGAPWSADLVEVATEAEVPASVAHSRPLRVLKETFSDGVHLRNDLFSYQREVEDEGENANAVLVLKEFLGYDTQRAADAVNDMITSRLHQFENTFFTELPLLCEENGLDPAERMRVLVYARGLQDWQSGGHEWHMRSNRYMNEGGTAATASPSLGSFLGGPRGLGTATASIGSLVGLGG
From the text: product identification by GC-QToF on KaGerS (AHH94051.1) | we tested its functionality with FPP in in vitro conditions. This yielded germacradienol and germacrene D

RrBerS (AHY45426.1) = target: T6, RrBerS (AHY45426.1) (Rubrobacter radiotolerans, UniProt A0A023WZP4); conditions: 5 mM MgCl2, 25 mM Tris-HCl pH 7.8, 28 C overnight
T6 construct: gene RradSPS_0143; codon-optimised, pETM11, N-terminal His-tag (TEV cleavable), E. coli, Ni-NTA purified
T6 sequence (A0A023WZP4 1-348): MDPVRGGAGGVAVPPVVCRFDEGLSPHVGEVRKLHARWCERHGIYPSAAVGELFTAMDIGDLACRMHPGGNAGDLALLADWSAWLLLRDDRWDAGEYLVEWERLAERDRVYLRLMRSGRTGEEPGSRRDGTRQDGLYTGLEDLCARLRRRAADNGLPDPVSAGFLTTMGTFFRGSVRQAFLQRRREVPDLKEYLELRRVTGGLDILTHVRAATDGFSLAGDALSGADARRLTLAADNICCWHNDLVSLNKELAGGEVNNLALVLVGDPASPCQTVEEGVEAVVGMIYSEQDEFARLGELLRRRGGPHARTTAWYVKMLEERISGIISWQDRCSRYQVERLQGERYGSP

[5] = target: T7, ScEpiS (CAN96536.1), 10-epi-cubebol synthase (Sorangium cellulosum, UniProt A9GK58); conditions: 5 mM MgCl2, 25 mM Tris-HCl pH 7.8, 28 C overnight
T7 construct: gene sce6369; codon-optimised, pETM11, N-terminal His-tag (TEV cleavable), E. coli, Ni-NTA purified
T7 sequence (A9GK58 1-315): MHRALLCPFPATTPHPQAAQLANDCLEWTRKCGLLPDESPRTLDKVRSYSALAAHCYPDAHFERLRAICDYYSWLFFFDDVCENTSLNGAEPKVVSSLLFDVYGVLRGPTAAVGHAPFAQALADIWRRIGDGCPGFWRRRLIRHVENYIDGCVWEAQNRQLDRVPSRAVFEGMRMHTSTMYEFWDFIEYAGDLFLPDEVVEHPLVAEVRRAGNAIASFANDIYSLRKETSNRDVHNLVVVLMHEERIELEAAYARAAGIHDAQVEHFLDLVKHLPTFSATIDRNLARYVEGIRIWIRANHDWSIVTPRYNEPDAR

| SMILES | product identification by GC-QToF [1] | product identification by GC-QToF ([2]; 75 uM FPP, product trans-nerolidol) | product identification by GC-QToF [3] | product identification by GC-QToF [4] | product identification by GC-QToF (KaGerS (AHH94051.1)) | product identification by GC-QToF (RrBerS (AHY45426.1); 75 uM FPP, product alpha-bergamotene) | product identification by GC-QToF ([5]; 75 uM FPP, products 10-epi-cubebol and others) | product identification by GC-QToF ([2]; 100 uM GPP, products R- and S-linalool) | product identification by GC-QToF (RrBerS (AHY45426.1); 100 uM GPP, product linalool) | product identification by GC-QToF ([5]; 100 uM GPP, products cis/trans-beta-ocimene and linalool) |
| --- | --- | --- | --- | --- | --- | --- | --- | --- | --- | --- |
| CC(C)=CCC/C(C)=C/CC/C(C)=C/COP(=O)(O)OP(=O)(O)O [FPP] | incubated with FPP yielded β-elemene, and 8-isopropenyl-1,5-dimethyl-1,5-cyclodecadiene | with FPP yielded a single product that was identified as trans-nerolidol by GC–QToF analysis | converted FPP into only aromadendrene in in vitro analysis | purified geosmin synthase yielded the sesquiterpenoids geosmin, germacradienol and germacrene D | we tested its functionality with FPP in in vitro conditions. This yielded germacradienol and germacrene D | also showed activity with both FPP and GPP, yielding α-bergamotene | When ScEpiS was incubated with FPP the products obtained were 10-epi-α-cubinene | – | – | – |
| CC(C)=CCC/C(C)=C/COP(=O)(O)OP(=O)(O)O [GPP] | – | – | – | – | – | – | – | Incubation with GPP yielded both R- and S- linalool isomers | also showed activity with both FPP and GPP, yielding α-bergamotene | with GPP yielded the monoterpene products cis- and trans-β-ocimene |
